Patent US6620828B2, “Thiazole compounds and pharmaceutical compositions for inhibiting protein kinases and methods for their use” (Agouron Pharmaceuticals, Inc., priority 1999, dated 2003)
Read-outs that look alike come from different tables or passages of the source.

Key:
[1] = target: T1, phosphorylated VEGF-R2Δ50 (Homo sapiens, UniProt P35968, DEL940-989/E990V); assay: VEGF-R2 ELISA assay; assay type: biochemical; conditions: * determined with ELISA assay, read-out: FLVK-P Ki
T1 construct: VEGF-R2Δ50 contains residues 806-939 and 990-1171; made in house; host or cells: baculovirus/insect cells
T1 sequence (P35968 with tags, fused parts or gaps DEL940-989/E990V limits assumed): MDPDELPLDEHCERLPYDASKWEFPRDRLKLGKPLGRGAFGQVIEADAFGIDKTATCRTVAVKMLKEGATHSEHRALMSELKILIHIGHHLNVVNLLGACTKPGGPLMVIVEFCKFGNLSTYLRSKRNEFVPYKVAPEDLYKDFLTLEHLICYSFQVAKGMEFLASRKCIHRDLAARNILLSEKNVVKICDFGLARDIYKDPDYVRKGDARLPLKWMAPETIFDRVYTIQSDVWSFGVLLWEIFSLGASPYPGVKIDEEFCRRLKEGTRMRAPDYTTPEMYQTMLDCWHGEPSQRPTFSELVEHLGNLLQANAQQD
From the text: VEGF-R2 Construct for Assay: This construct determines the ability of a test compound to inhibit tyrosine kinase activity. A construct (VEGF-R2Δ50) of the cytosolic domain of human vascular endothelial growth factor receptor 2 (VEGF-R2) lacking the 50 central residues of the 68 residues of the kinase insert domain was expressed in a baculovirus/insect cell system. Of the 1356 residues of full-length VEGF-R2, VEGF-R2Δ50 contains residues 806-939 and 990-1171, and also one point mutation (E990V) within the kinase insert domain relative to wild-type VEGF-R2. Autophosphorylation of the purified construct was performed by incubation of the enzyme at a concentration of 4 μM in the presence of 3 mM ATP and 40 mM MgCl2 in 100 mM Hepes, pH 7.5, containing 5% glycerol and 5 mM DTT, at 4° C. for 2 h. […] See Parast et al., Biochemistry, 37, 16788-16801 (1998).
Formation of phosphogastrin was monitored using biotinylated gastrin peptide (1-17) as substrate. Biotinylated phosphogastrin was immobilized using streptavidin coated 96-well microtiter plates followed by detection using anti-phosphotyrosine-antibody conjugated to horseradish peroxidase. The activity of horseradish peroxidase was monitored using 2,2′-azino-di-[3-ethylbenzathiazoline sulfonate(6)]diammonium salt (ABTS). Typical assay solutions contained: 2 μM biotinylated gastrin peptide; 5 mM DTT; 20 μM ATP; 26 mM MgCl2; and 2 mM MnCl2 in 200 mM Hepes, pH 7.5. The assay was initiated with 0.8 nM of phosphorylated VEGF-R2Δ50. Horseradish peroxidase activity was assayed using ABTS, 10 mM. The horseradish peroxidase reaction was quenched by addition of acid (H2SO4), followed by absorbance reading at 405 nm. Ki values were determined by measuring enzyme activity in the presence of varying concentrations of test compounds. The data were analyzed using Enzyme Kinetic and Kaleidagraph software.

CDK4/Cyclin D3 complex = target: T2, CDK4/Cyclin D3 complex (Homo sapiens, UniProt P11802); assay: CDK4/Cyclin D assay; assay type: biochemical; conditions: Table 2
T2 construct: made in house; host or cells: insect cells co-infected with baculovirus vectors
T2 sequence (P11802 whole entry): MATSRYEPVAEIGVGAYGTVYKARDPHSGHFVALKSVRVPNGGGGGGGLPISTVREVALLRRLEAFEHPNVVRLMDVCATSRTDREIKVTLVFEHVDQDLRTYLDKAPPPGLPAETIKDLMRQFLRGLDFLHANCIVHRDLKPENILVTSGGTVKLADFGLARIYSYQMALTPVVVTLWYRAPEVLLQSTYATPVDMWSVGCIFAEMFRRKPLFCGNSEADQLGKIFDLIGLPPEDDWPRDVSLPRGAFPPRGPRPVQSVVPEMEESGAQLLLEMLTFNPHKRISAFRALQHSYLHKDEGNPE
T2 sequence (P30281 whole entry partner): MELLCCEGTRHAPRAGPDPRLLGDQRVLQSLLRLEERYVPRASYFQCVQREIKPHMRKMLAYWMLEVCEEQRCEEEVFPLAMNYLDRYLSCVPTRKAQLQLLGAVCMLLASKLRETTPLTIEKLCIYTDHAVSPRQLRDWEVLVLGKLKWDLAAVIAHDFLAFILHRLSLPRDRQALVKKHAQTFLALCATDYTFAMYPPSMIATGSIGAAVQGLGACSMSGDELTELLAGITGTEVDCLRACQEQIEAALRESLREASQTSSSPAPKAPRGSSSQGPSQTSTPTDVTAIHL
Method in brief: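 Insect-cell-expressed CDK4/cyclin D3 (50 nM) phosphorylating His-tagged Rb fragment (residues 386-928) with 25 μM [^32P]ATP in HEPES pH 7.4, MgCl2, 2% DMSO; 20 min at 30 °C, EDTA stop. Filter-captured 32P by phosphorimager; apparent Ki from competitive or tight-binding inhibition fits.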

[2] = target: T3, phosphorylated VEGF-R2Δ50 (FLVK-P) (Homo sapiens, UniProt P35968, DEL940-989/E990V); assay: VEGF-R2 coupled spectrophotometric (FLVK-P) assay; assay type: biochemical; conditions: spectrophotometric assay
T3 construct: VEGF-R2Δ50 contains residues 806-939 and 990-1171; made in house; host or cells: baculovirus/insect cells
T3 sequence (P35968 with tags, fused parts or gaps DEL940-989/E990V limits assumed): as the sequence (P35968 with tags, fused parts or gaps DEL940-989/E990V limits assumed) above
Method in brief: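 Baculovirus-expressed human VEGF-R2Δ50 (residues 806-939/990-1171, E990V) was autophosphorylated with 3 mM ATP, 40 mM MgCl2 for 2 h at 4° C. ADP formation was coupled via PK/LDH to NADH oxidation, read at 340 nm, with 5.1 mM poly(E4Y1), 1 mM ATP, 25 mM MgCl2, Hepes pH 7.5. Ki came from activity across compound concentrations.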

CDK2/Cyclin A complex = CDK2/Cyclin A complex (Homo sapiens, UniProt P24941); assay: CDK2/Cyclin A assay; assay type: biochemical; conditions: Table 2
Method in brief: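 Radiometric assay: 150 nM CDK2/cyclin A (insect-cell CDK2, truncated cyclin A) phosphorylates His-tagged Rb fragment (residues 386-928) with 25 μM ATP plus [32P]ATP, pH 7.4 HEPES, 2% DMSO, 30 °C for 20 min. Filter-captured product counted by phosphorimager; apparent Ki from competitive or tight-binding inhibition fits.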

CHK1 = target: T4, CHK1 (Homo sapiens, UniProt O14757); assay: CHK1 high-throughput screening; assay type: biochemical; conditions: read-out: % inhibition @ 20 μM, Table 4, repeated entries per example
T4 sequence (O14757 1-476): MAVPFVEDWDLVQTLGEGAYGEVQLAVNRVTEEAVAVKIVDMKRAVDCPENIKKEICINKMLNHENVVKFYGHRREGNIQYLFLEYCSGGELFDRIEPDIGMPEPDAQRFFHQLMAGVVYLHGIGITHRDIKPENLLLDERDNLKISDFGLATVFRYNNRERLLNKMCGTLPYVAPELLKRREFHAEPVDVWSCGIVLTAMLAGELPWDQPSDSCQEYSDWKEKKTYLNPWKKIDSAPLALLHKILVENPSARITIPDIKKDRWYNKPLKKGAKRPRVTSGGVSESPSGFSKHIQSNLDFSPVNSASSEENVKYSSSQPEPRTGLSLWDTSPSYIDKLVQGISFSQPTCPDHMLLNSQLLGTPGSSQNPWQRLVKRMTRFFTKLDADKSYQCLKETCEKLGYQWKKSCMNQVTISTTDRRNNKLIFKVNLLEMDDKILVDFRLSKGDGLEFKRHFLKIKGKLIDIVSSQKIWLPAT

[3] = system: lung cancer cells (line MV522); assay: Cancer cell proliferation (MV522) assay; assay type: cell-based; conditions: MV522, Table 1
Procedure: Cancer Cell Proliferation (MV522) Assay
The protocol for assessing cellular proliferation in cancer cells is similar to that used for assessments in HUVEC cells. Two thousand lung cancer cells (line MV522, acquired from American Tissue Cultural Collection) were seeded in growth media (RPMI1640 medium supplemented with 2 mM glutamine and 10% FBS). Cells are allowed to attach for 1 day prior to addition of test agents and/or vehicles. Cells are treated simultaneously with the same test agents used in the HUVEC assay. Cellular proliferation is quantified by MTT dye reduction assay 72 hours after exposure to test agents. The total length of the assay is 4 days vs. 5 for HUVEC cells because MV522 cells are not exposed to starvation medium.

[4] = system: human umbilical vein endothelial cells (HUVEC); assay: HUVEC proliferation assay; assay type: cell-based; conditions: Homo sapiens, HUVEC, Table 1
Method in brief: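 Exponentially growing HUVEC were serum-starved 24 h (F12K + 1% FBS), pre-treated 1 h with compound (0.1% DMSO final), then stimulated with 6 ng/ml VEGF. Proliferation was read 72 h later by MTT reduction (A595). IC50 came from seven 0.5-log concentrations in triplicate; screens gave % inhibition relative to VEGF-only and starved wells.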

Structure (SMILES) | Ki ([1]; Table 2) | Ki ([1]; Table 1) | further results
COc1cc(Nc2nc(N)c(C3=NCC(C)O3)s2)cc(OC)c1OC (racemic) [I(19), (R/S)-5-(5-Methyl-4,5-dihydro-oxazol-2-yl)-N^2-(3,4,5-trimethoxy-phenyl)-thiazole-2,4-diamine] | 34000 nM | – | –
COc1cc(Nc2nc(N)c(C3=NC(c4ccccc4Br)CO3)s2)cc(OC)c1OC (racemic) [I(13), (R/S)-5-[4-(2-Bromo-phenyl)-4,5-dihydro-oxazol-2-yl]-N^2-(3,4,5-trimethoxy-phenyl)-thiazole-2,4-diamine] | 1250 nM | – | –
CCC(=O)Nc1cccc(-c2csc(-c3sc(Nc4cc(OC)c(OC)c(OC)c4)nc3N)n2)c1 [D(8), N-{3-[4′-Amino-2′-(3,4,5-trimethoxy-phenylamino)-[2,5′]bithiazolyl-4-yl]-phenyl}-propionamide] | – | 29 nM | –
COc1cc(Nc2nc(N)c(-c3nc(-c4cccc(NC(=O)CC(C)C)c4)cs3)s2)cc(OC)c1OC [D(9)] | – | 47 nM | –
COc1cc(Nc2nc(N)c(-c3nc(-c4cccc(NC(=O)Oc5cccc6ccccc56)c4)cs3)s2)cc(OC)c1OC [D(22), {3-[4′-Amino-2′-(3,4,5-trimethoxy-phenylamino)-[2,5′]bithiazolyl-4-yl]-phenyl}-carbamic acid naphthalen-1-yl ester] | – | 89 nM | –
COc1cc(Nc2nc(N)c(C3=NC(C)CO3)s2)cc(OC)c1OC (racemic) [I(15), (R/S)-5-(4-Methyl-4,5-dihydro-oxazol-2-yl)-N^2-(3,4,5-trimethoxy-phenyl)-thiazole-2,4-diamine] | 73000 nM | – | –
COc1cc(Nc2nc(N)c(-c3nc(-c4cccc(NC(=O)C(F)F)c4)cs3)s2)cc(OC)c1OC [D(14), N-{3-[4′-Amino-2′-(3,4,5-trimethoxy-phenylamino)-[2,5′]bithiazolyl-4-yl]-phenyl}-2,2-difluoro-acetamide] | – | 120 nM | –
COC(=O)Nc1cccc(-c2csc(-c3sc(Nc4cc(OC)c(OC)c(OC)c4)nc3N)n2)c1 [D(6), {3-[4′-Amino-2′-(3,4,5-trimethoxy-phenylamino)-[2,5′]bithiazolyl-4-yl]-phenyl}-carbamic acid methyl ester] | – | 25 nM | –
COc1cc(Nc2nc(N)c(C3=NC(C(C)C)CO3)s2)cc(OC)c1OC (racemic) [I(17), (R/S)-5-(4-Isopropyl-4,5-dihydro-oxazol-2-yl)-N^2-(3,4,5-trimethoxy-phenyl)-thiazole-2,4-diamine] | 35000 nM | – | –
COc1cc(Nc2nc(N)c(-c3nc(-c4cccc(NC(=O)C(F)(F)F)c4)cs3)s2)cc(OC)c1OC [D(13), N-{^3-[4′-Amino-2′-(3,4,5-trimethoxy-phenylamino)-[2,5′]bithiazolyl-4-yl]-phenyl}-2,2,2-trifluoro-acetamide] | – | 120 nM | –
COc1cc(Nc2nc(N)c(C3=N[C@H](c4ccccc4)CO3)s2)cc(OC)c1OC [I(7), R-5-(4-Phenyl-4,5-dihydro-oxazol-2-yl)-N^2-(3,4,5-trimethoxyl-phenyl)-thiazole-2,4-diamine] | 5200 nM | – | –
COc1cc(Nc2nc(N)c(C3=N[C@@H](C)C(c4ccccc4)O3)s2)cc(OC)c1OC (stereo in doubt) [I(16), 5-(4-Methyl-5-phenyl-4,5-dihydro-oxazol-2-yl)-N^2-(3,4,5-trimethoxy-phenyl)-thiazole-2,4-diamine] | 178000 nM | – | –
COc1cc(Nc2nc(N)c(-c3nc(-c4cccc(NC(=O)OC(C)C)c4)cs3)s2)cc(OC)c1OC [D(10), {3-[4′-Amino-2′-(3,4,5-trimethoxy-phenylamino)-[2,5′]bithiazolyl-4-yl]-phenyl}-carbamic acid isopropyl ester] | – | 56 nM | –
COc1cc(Nc2nc(N)c(-c3nc(-c4cccc(NC(=O)COc5ccccc5)c4)cs3)s2)cc(OC)c1OC [D(15), N-{3-[4′-Amino-2′-(3,4,5-trimethoxy-phenylamino)-[2,5′]bithiazolyl-4-yl]-phenyl}-2-phenoxy-acetamide] | – | 240 nM | –
CNc1nc(N)c(-c2nc(-c3cccc(O)c3)cs2)s1 [A(30), 3-(4′-Amino-2′-methylamino-[2,5′]bithiazolyl-4-yl)-phenol] | – | – | Ki (CDK4/Cyclin D3 complex): 22000 nM; Ki ([2]; Table 2): 110 nM; Ki (CDK2/Cyclin A complex): 4800 nM; inhibition at 20 µM (CHK1): 3.4%
CNC(=O)Nc1cccc(-c2csc(-c3sc(Nc4cc(OC)c(OC)c(OC)c4)nc3N)n2)c1 [D(7), 1-{3-[4′-Amino-2′-(3,4,5-trimethoxy-phenylamino)-[2,5′]bithiazolyl-4-yl]-phenyl}-3-methyl-urea] | – | 120 nM | –
COc1cc(Nc2nc(N)c(C3=NC(c4cccc(Br)c4)CO3)s2)cc(OC)c1OC (racemic) [I(14), (R/S)-5-[4-(3-Bromo-phenyl)-4,5-dihydro-oxazol-2-yl]-N^2-(3,4,5-trimethoxy-phenyl)-thiazole-2,4-diamine] | 1170 nM | – | –
Nc1nc(Nc2cccc(C(=O)O)c2)sc1-c1nc(-c2cccc(NC(=O)c3ccccc3)c2)cs1 [A(50), 3-[4′-Amino-4-(3-benzoylamino-phenyl)-[2,5′]bithiazolyl-2′-ylamino]-benzoic acid] | – | – | Ki ([2]; Table 1): 8.9 nM; inhibition at 20 µM (CHK1): 30.1%; IC50 [3]: > 10000 nM; IC50 [4]: > 700 nM
COc1cc(Nc2nc(N)c(-c3noc(-c4ccsc4)n3)s2)cc(OC)c1OC [G(7), 5-(5-Thiophen-3-yl-[1,2,4]oxadiazol-3-yl)-N^2-(3,4,5-trimethoxy-phenyl)-thiazole-2,4-diamine] | 1600 nM | – | CDK2 % inhibition @ 10 (CDK2/Cyclin A complex; at 10 (head μM)): 21% @
COc1cc(Nc2nc(N)c(-c3nc(-c4cccc(NC(=O)Cc5ccccc5)c4)cs3)s2)cc(OC)c1OC [D(5), N-{3-[4′-Amino-2′-(3,4,5-trimethoxy-phenylamino)-[2,5′]bithiazolyl-4-yl]-phenyl}-2-phenyl-acetamide] | – | 63 nM | –
COc1cc(Nc2nc(N)c(C3=N[C@H](C)[C@H](c4ccccc4)O3)s2)cc(OC)c1OC [I(18), 5-(4(R)-Methyl-5(S)-phenyl-4,5-dihydro-oxazol-2-yl)-N^2-(3,4,5-trimethoxy-phenyl)-thiazole-2,4-diamine] | 2700 nM | – | –
